Experimental findings from PubChem BioAssay (NCI) are described below.

Structures are written as SMILES.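 The compound was tested at five concentrations on cells cultured in 96-well plates, with a 48-hour exposure period. TGI marks complete inhibition of growth.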

Holding throughout (test): NCI anticancer screen, dose series, 48 h
Assay [1] concerns SN12C renal.
Assay [2] has as its system HL-60(TB) leukemia.
For assay [3], the system named is SR leukemia.
In assay [4] the test system is NCI-H226 lung.
The subject of assay [5] is LOX IMVI melanoma.
Assay [6] deals with A549 NSCLC.
Assay [7] deals with HOP-92 NSCLC.
In assay [8] the test system is HOP-62 NSCLC.
Assay [9] has as its system KM12 colon.
Assay [10] has as its system SNB-75 CNS.
The test system of assay [11] is U251 CNS.
In assay [12] the test system is OVCAR-4 ovarian.
The test system of assay [13] is RPMI-8226 leukemia.
Assay [14] has as its system SW-620 colon.
Assay [15] concerns HCT-116 colon.
Assay [16] deals with NCI-H460 lung.
The test system of assay [17] is HCC-2998 colon.
In assay [18] the test system is MCF7 breast.
In assay [19] the test system is PC-3 prostate.

Turning to `Oc1ccc(C2Oc3cc(O)cc4c3C2c2cc(O)cc3c2C(c2cc(O)cc5c2C4C(c2ccc(O)cc2)O5)C(c2ccc(O)cc2)O3)cc1` (stereo not drawn), the TGI in [1] is > 25 µM; in assay [2], 14.1 µM; in assay [3] it was > 25 µM; in assay [4], 17.3 µM; in [5], > 25 µM; in [6], > 25 µM. Moreover, the TGI was 21.3 µM in assay [7]; > 25 µM in assay [8]; > 25 µM in assay [9]; 15.5 µM in [10]; > 25 µM in assay [11]; 10.4 µM in [12]. The TGI was 24.3 µM in assay [13]; > 25 µM in [14]; > 25 µM in assay [15]; > 25 µM in [16]; > 25 µM in [17].
`CCc1ccc(Cc2ccc(CC)c(NC(=O)C(=O)C3NC(=S)NC3=O)c2CC)c(CC)c1NC(=O)C(=O)C1NC(=S)NC1=O` (stereo not drawn): the TGI in assay [2], in [5], in [6], in assay [7], in [8] and in assay [9] was > 100 µM each time. The TGI in assay [10], in [11], in assay [12], in assay [13], in assay [14] and in [15] was > 100 µM in each case. The TGI in [16] and in [17] was > 100 µM throughout.
As to `Cn1ccc(=NS(=O)(=O)c2ccccc2)cc1`, the TGI in assay [2], in assay [5], in assay [6], in assay [7], in [8] and in [9] was > 100 µM in each case. In addition, the TGI in assay [10], in assay [11], in assay [13], in assay [14], in assay [15] and in assay [16] was > 100 µM throughout. For the same molecule, in [17], the TGI was > 100 µM.
As to `CC(C)(CCl)NC(=O)c1cccc(C(=O)NC(C)(C)CCl)n1`, the TGI in [1], in assay [2], in [3], in assay [4], in assay [5] and in [6] was > 100 µM each time. Moreover, the TGI in assay [7], in assay [8], in assay [9], in assay [10], in assay [11] and in [12] was > 100 µM in each case. For the same molecule, the TGI in assay [13], in assay [14], in assay [15], in assay [16] and in assay [17] was > 100 µM throughout.
As to `C=CCCCN1CCCCC1=S`, the TGI in [1], in assay [2], in assay [3], in [4], in assay [5] and in assay [6] was > 100 µM each time. Besides, the TGI in [7], in assay [8], in assay [9], in [10], in assay [11] and in [12] was > 100 µM each time. In addition, the TGI in assay [13], in assay [14], in assay [15], in [16] and in assay [17] was > 100 µM each time.
In the case of `N#Cc1ccc(OCCSCCCCCCCCCCSCCOc2ccc(C#N)cc2)cc1`, the TGI in assay [1], in assay [2], in [4], in assay [5], in [6] and in [8] was > 100 µM each time. Also, the TGI in [9], in [10], in [11], in assay [13], in assay [14] and in [16] was > 100 µM each time. Further, the TGI in assay [17] is > 100 µM.
Consider `CC(C)c1cccc(C(C)C)c1NC(=O)C(=O)C1CCC2=C(Sc3ccccc3N2)C1=O` (stereo not drawn), for which the TGI in [1], in [2], in assay [3], in assay [4], in assay [5] and in assay [6] was > 100 µM throughout. The TGI in assay [7], in assay [8], in assay [9], in assay [10], in [11] and in [12] was > 100 µM each time. Moreover, the TGI was > 100 µM in assay [13]; 32.5 µM in [14]; > 100 µM in assay [15]; > 100 µM in [16]; > 100 µM in [17].
For the molecule `CN/N=C(\C)C(CN1CCCCC1)C(C1=C(O)c2ccccc2OC1)c1ccccc1` (stereo not drawn), the TGI in assay [1], in assay [2], in [3], in assay [4], in assay [5] and in [6] was > 100 µM each time. Moreover, the TGI in assay [8], in [9], in assay [10], in assay [11], in [12] and in assay [13] was > 100 µM each time. In addition, the TGI in assay [14], in [15], in assay [16] and in [17] was > 100 µM in each case.
With `Cc1nn(C(=O)Cc2ccccc2)c2c1C(c1ccc([N+](=O)[O-])cc1)SC(N)=N2` (stereo not drawn), the TGI in assay [1], in [2], in assay [3], in assay [5], in [6] and in assay [8] was > 100 µM each time. The TGI in assay [18], in [9], in [19], in assay [13], in [14] and in [15] was > 100 µM in each case. The TGI in assay [16] and in assay [17] was > 100 µM throughout.
